According to article PMC6688997 (Nature Communications, 2019):

Columns and labels:
Assay in all cases: Kinase assay, 1 mM ATP
Format in all cases: biochemical
AXL = target: T1, AXL (Homo sapiens, UniProt P30530)
T1 construct: purchased Carna Biosciences
Description: (§1) An off-chip mobility shift assay was performed by Carna Biosciences, Inc. (Kobe, Japan), according to their product instructions. […] The IC50 values were estimated according to the four-parameter logistic model.

AurA = AurA (Homo sapiens, UniProt O14965)
AurA, sequence (O14965 whole entry): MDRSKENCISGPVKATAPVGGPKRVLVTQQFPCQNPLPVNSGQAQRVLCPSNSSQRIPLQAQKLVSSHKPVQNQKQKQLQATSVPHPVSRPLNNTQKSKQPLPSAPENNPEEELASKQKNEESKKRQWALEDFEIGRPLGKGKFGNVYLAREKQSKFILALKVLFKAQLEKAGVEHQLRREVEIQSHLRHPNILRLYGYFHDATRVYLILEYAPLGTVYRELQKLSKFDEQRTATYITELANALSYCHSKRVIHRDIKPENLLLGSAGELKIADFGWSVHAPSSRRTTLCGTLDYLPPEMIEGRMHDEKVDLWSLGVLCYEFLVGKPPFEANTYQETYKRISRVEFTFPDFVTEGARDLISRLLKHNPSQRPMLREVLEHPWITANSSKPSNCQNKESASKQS
Description: as §1

CDK2/CycA2 = CDK2/CycA2 (Homo sapiens, UniProt P24941)
Description: as §1

CDK3/CycE1 = CDK3/CycE1 (Homo sapiens, UniProt Q00526)
Description: as §1

CDK5/p25 = CDK5/p25 (Homo sapiens, UniProt Q00535)
Description: as §1

CK1α = CK1α (Homo sapiens, UniProt P48729)
Description: as §1

CK2α1/β = CK2α1/β (Homo sapiens, UniProt P68400)
Description: as §1

CLK2 = CLK2 (Homo sapiens, UniProt P49760)
Description: as §1

DAPK1 = DAPK1 (Homo sapiens, UniProt P53355)
Description: as §1

EGFR(L858R) = target: T2, EGFR(L858R) (Homo sapiens, UniProt P00533, L858R)
T2 construct: purchased Carna Biosciences
Description: as §1

EGFR(T790M/L858R) = target: T3, EGFR(T790M/L858R) (Homo sapiens, UniProt P00533, L858R/T790M)
T3 construct: purchased Carna Biosciences
Description: as §1

EGFR(d746-750) = target: T4, EGFR(d746-750) (Homo sapiens, UniProt P00533, DEL746-750)
T4 construct: purchased Carna Biosciences
Description: as §1

EPHA6 = EPHA6 (Homo sapiens, UniProt Q9UF33)
Description: as §1

EPHA7 = EPHA7 (Homo sapiens, UniProt Q15375)
Description: as §1

EPHB1 = EPHB1 (Homo sapiens, UniProt P54762)
Description: as §1

EPHB3 = EPHB3 (Homo sapiens, UniProt P54753)
Description: as §1

EPHB4 = EPHB4 (Homo sapiens, UniProt P54760)
EPHB4, sequence (P54760 16-987): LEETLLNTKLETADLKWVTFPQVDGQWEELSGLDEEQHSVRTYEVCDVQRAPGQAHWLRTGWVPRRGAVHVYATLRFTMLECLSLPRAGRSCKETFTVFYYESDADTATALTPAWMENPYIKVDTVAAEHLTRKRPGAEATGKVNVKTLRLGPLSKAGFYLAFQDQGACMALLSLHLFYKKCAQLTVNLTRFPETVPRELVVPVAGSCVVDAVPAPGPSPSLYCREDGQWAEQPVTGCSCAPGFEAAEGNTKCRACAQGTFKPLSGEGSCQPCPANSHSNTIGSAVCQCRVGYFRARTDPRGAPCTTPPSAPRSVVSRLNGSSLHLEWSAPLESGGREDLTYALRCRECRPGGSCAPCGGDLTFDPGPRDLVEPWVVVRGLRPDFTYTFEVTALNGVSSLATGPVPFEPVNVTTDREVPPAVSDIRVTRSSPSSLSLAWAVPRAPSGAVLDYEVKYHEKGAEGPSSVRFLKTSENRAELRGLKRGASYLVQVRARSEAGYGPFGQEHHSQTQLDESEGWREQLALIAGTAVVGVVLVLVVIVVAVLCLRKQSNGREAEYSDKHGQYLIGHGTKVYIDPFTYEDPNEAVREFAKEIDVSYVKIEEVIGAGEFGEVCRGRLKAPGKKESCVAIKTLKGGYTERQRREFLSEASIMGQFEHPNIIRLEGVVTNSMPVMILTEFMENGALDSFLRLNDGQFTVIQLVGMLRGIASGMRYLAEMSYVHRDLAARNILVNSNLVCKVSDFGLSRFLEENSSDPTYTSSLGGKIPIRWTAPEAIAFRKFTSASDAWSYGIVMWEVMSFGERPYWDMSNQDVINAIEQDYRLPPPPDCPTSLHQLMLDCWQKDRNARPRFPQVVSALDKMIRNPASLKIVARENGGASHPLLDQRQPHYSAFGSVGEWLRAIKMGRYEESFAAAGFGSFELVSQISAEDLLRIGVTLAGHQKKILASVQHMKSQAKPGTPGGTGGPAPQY
Description: as §1

Erk1 = Erk1 (Homo sapiens, UniProt P27361)
Erk1, sequence (P27361 whole entry): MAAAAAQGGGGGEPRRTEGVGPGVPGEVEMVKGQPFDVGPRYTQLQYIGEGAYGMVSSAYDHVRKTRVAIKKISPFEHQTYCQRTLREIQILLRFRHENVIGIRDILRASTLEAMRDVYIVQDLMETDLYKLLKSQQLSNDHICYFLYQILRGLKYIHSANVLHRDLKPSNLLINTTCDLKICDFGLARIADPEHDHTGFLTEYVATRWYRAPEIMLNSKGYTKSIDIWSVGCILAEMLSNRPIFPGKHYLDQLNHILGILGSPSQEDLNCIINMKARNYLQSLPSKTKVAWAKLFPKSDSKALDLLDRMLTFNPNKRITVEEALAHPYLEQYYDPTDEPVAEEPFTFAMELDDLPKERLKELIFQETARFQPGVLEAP
Description: as §1

FER = target: T5, FER (Homo sapiens, UniProt P16591)
T5 construct: purchased Carna Biosciences
Description: as §1

FGFR1 = target: T6, FGFR1 (Homo sapiens, UniProt P11362)
T6 construct: purchased Carna Biosciences
Description: as §1

FGFR3 = target: T7, FGFR3 (Homo sapiens, UniProt P22607)
T7 construct: purchased Carna Biosciences
Description: as §1

FGFR4 = FGFR4 (Homo sapiens, UniProt P22455)
Description: as §1

FLT1 = target: T8, FLT1 (Homo sapiens, UniProt P17948)
T8 construct: purchased Carna Biosciences
Description: as §1

FLT3 = target: T9, FLT3 (Homo sapiens, UniProt P36888)
T9 construct: purchased Carna Biosciences
Description: as §1

HCK = HCK (Homo sapiens, UniProt P08631)
HCK, sequence (P08631 whole entry): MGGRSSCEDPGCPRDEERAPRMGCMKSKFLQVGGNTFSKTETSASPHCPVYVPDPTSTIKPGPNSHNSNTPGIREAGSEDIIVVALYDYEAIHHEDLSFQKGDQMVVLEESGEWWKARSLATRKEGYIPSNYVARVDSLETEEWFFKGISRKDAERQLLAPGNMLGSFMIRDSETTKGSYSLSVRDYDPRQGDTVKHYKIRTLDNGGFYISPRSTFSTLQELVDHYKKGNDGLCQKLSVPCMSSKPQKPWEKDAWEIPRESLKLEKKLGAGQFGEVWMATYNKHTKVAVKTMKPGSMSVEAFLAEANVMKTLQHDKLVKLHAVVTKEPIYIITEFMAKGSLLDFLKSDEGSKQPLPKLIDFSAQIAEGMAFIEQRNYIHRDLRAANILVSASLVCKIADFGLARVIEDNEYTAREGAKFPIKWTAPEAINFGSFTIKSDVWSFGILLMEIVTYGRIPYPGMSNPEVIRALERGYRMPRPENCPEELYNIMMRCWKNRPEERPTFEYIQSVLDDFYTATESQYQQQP
Description: as §1

HGK = target: T10, HGK (Homo sapiens, UniProt O95819)
T10 construct: purchased Carna Biosciences
Description: as §1

IGF1R = target: T11, IGF1R (Homo sapiens, UniProt P08069)
T11 construct: purchased Carna Biosciences
Description: as §1

IRAK4 = IRAK4 (Homo sapiens, UniProt Q9NWZ3)
IRAK4, sequence (Q9NWZ3 whole entry): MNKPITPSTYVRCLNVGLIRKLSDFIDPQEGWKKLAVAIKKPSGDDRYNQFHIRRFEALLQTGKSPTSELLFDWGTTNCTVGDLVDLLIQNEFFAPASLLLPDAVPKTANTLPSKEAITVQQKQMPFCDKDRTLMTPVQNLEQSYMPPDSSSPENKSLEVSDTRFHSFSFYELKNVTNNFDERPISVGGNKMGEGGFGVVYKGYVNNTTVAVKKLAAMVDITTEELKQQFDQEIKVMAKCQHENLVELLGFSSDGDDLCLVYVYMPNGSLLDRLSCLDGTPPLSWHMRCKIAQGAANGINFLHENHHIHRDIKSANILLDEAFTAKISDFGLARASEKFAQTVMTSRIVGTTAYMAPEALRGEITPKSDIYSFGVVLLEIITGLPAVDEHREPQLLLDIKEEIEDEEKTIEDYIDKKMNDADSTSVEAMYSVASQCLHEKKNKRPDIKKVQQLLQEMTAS
Description: as §1

JAK3 = target: T12, JAK3 (Homo sapiens, UniProt P52333)
T12 construct: purchased Carna Biosciences
Description: as §1

JNK3 = JNK3 (Homo sapiens, UniProt P53779)
Description: as §1

LYNa = LYNa (Homo sapiens, UniProt P07948)
Description: as §1

MAPKAPK2 = target: T13, MAPKAPK2 (Homo sapiens, UniProt P49137)
T13 construct: purchased Carna Biosciences
Description: as §1

NEK6 = target: T14, NEK6 (Homo sapiens, UniProt Q9HC98)
T14 construct: purchased Carna Biosciences
Description: as §1

NEK7 = NEK7 (Homo sapiens, UniProt Q8TDX7)
Description: as §1

NEK9 = target: T15, NEK9 (Homo sapiens, UniProt Q8TD19)
T15 construct: purchased Carna Biosciences
T15 sequence (Q8TD19 whole entry): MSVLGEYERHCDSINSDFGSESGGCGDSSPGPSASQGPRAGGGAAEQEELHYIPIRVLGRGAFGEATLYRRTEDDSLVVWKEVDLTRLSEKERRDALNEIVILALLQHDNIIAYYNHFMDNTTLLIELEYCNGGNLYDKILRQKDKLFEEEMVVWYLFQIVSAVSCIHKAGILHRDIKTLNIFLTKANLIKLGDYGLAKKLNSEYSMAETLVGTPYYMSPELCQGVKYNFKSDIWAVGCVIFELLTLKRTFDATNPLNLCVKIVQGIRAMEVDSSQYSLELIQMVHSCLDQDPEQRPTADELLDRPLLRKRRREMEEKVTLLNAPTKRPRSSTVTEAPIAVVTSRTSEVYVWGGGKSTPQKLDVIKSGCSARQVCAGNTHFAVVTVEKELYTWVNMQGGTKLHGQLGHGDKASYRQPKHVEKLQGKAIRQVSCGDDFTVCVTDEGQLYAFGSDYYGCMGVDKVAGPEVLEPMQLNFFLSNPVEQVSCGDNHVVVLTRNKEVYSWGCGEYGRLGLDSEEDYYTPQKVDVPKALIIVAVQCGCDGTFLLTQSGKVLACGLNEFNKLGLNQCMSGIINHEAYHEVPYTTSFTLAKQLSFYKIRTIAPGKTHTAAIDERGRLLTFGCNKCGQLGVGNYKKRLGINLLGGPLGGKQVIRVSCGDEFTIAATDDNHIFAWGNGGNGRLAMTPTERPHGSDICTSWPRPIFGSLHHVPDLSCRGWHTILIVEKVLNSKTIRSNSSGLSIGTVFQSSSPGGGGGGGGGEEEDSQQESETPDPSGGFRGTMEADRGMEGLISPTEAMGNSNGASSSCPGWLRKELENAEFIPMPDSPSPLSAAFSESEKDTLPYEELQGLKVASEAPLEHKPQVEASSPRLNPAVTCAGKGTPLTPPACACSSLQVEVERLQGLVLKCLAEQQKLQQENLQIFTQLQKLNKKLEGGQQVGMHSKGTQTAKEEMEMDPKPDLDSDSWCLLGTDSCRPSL
Description: as §1

PIM1 = PIM1 (Homo sapiens, UniProt P11309)
Description: as §1

PYK2 = target: T16, PYK2 (Homo sapiens, UniProt Q14289)
T16 construct: purchased Carna Biosciences
Description: as §1

RET(M918T) = target: T17, RET(M918T) (Homo sapiens, UniProt P07949, M918T)
T17 construct: purchased Carna Biosciences
Description: as §1

RET(Y791F) = target: T18, RET(Y791F) (Homo sapiens, UniProt P07949, Y791F)
T18 construct: purchased Carna Biosciences
Description: as §1

SRM = target: T19, SRM (Homo sapiens, UniProt Q9H3Y6)
T19 construct: purchased Carna Biosciences
Description: as §1

TYK2 = TYK2 (Homo sapiens, UniProt P29597)
TYK2, sequence (P29597 whole entry): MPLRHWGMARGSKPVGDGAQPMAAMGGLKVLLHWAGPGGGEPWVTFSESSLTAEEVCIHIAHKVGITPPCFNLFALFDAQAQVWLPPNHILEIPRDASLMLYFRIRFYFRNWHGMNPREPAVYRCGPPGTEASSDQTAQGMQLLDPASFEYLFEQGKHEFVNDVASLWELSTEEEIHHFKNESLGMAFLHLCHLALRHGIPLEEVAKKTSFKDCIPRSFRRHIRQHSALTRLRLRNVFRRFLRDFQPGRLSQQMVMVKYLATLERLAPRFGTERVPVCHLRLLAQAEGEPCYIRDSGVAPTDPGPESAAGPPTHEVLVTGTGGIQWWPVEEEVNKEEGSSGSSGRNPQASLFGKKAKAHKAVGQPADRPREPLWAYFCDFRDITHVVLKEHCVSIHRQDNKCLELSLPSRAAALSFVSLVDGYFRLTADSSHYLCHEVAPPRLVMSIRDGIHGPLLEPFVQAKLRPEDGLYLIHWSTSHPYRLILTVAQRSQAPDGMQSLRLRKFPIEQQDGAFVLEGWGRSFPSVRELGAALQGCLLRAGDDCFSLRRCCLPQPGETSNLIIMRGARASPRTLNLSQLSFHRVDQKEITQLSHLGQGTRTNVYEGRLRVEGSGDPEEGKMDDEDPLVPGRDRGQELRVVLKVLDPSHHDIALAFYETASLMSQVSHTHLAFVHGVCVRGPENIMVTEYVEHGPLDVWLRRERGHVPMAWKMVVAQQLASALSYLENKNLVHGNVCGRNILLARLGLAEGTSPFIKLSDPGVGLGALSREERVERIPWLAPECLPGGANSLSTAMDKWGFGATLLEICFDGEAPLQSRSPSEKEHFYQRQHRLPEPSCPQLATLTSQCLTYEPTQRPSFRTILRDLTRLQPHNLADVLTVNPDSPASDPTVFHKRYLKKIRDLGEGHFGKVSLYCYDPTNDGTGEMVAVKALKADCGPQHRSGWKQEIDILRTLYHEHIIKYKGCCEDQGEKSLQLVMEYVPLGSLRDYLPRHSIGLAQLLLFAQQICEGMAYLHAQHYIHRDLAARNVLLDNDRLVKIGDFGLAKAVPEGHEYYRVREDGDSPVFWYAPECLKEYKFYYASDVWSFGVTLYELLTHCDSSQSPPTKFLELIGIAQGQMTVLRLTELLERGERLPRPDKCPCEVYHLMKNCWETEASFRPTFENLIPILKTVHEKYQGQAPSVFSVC
Description: as §1

skMLCK = skMLCK (Homo sapiens, UniProt Q9H1R3)
Description: as §1

## C[C@@H](N)COc1ccc(-c2cnc3ccc(N[C@H](C)c4cccc(F)c4)nn23)cc1.O=C(O)CCCCC(=O)O [DS-6051b]
AXL
  inhibition at 0.2 µM: 18%
AurA
  inhibition at 0.2 µM: -15.7%
CDK2/CycA2
  inhibition at 0.2 µM: 2.3%
CDK3/CycE1
  inhibition at 0.2 µM: -1.2%
CDK5/p25
  inhibition at 0.2 µM: -7.4%
CK1α
  inhibition at 0.2 µM: -1%
CK2α1/β
  inhibition at 0.2 µM: -12.2%
CLK2
  inhibition at 0.2 µM: -1.1%
DAPK1
  inhibition at 0.2 µM: -0.6%
EGFR(L858R)
  inhibition at 0.2 µM: 0.7%
EGFR(T790M/L858R)
  inhibition at 0.2 µM: 4%
EGFR(d746-750)
  inhibition at 0.2 µM: -3.4%
EPHA6
  inhibition at 0.2 µM: -5.7%
EPHA7
  inhibition at 0.2 µM: -4.9%
EPHB1
  inhibition at 0.2 µM: -3.5%
EPHB3
  inhibition at 0.2 µM: -0.7%
EPHB4
  inhibition at 0.2 µM: -6.2%
Erk1
  inhibition at 0.2 µM: -4.9%
FER
  inhibition at 0.2 µM: 5.5%
FGFR1
  inhibition at 0.2 µM: 3.4%
FGFR3
  inhibition at 0.2 µM: 1.3%
FGFR4
  inhibition at 0.2 µM: 3.7%
FLT1
  inhibition at 0.2 µM: -3.1%
FLT3
  inhibition at 0.2 µM: 18.8%
HCK
  inhibition at 0.2 µM: -6%
HGK
  inhibition at 0.2 µM: -8%
IGF1R
  inhibition at 0.2 µM: 3.4%
IRAK4
  inhibition at 0.2 µM: -0.4%
JAK3
  inhibition at 0.2 µM: 0.0922%
JNK3
  inhibition at 0.2 µM: 0.655%
LYNa
  inhibition at 0.2 µM: 3.1%
MAPKAPK2
  inhibition at 0.2 µM: -8.5%
NEK6
  inhibition at 0.2 µM: -0.6%
NEK7
  inhibition at 0.2 µM: -2%
NEK9
  inhibition at 0.2 µM: -3.5%
PIM1
  inhibition at 0.2 µM: -3.6%
PYK2
  inhibition at 0.2 µM: 8.9%
RET(M918T)
  inhibition at 0.2 µM: 0.9%
RET(Y791F)
  inhibition at 0.2 µM: -4.3%
SRM
  inhibition at 0.2 µM: -3.1%
TYK2
  inhibition at 0.2 µM: 8.3%
skMLCK
  inhibition at 0.2 µM: -7.1%
